Data as given in article PMC10764104, “Discovery of Molecular Glue Degraders via Isogenic Morphological Profiling” (ACS Chemical Biology, 2023).
Where two headings read alike, the source gives them in different places.

Molecular target: T1, recombinant DDB1-CRBN (Homo sapiens, UniProt Q96SW2)
T1 construct: His; made in house; host or cells: High Five insect cells (baculovirus made and propagated in SF9 cells)
Test: Fluorescence polarization-based competition assay for CRBN binding
Procedure: Prior to screening the compound library in the isogenic CPA, we assessed their CRBN binding affinities using a fluorescence-polarization-based competition assay with recombinant DDB1-CRBN and the fluorescent tracer 16 (Figure S2). […] We also assessed the cytotoxicity of the CRBN binders in RKO wild-type (WT) cells to determine the appropriate treatment concentration. […]
Fluorescence Polarization‐based competition assay
Fluorescence Polarization assays were performed in 384‐well, Low Volume, Black, Round Bottom, Polystyrene Nonbinding surface Microplates (Corning, #4514). The test compounds were incubated with 200 nM CRBN‐DDB1 and 20 nM Pomalidomide‐fluorescein tracer 16 in 50 mM Tris‐HCl pH 7.5, 200 mM NaCl, 1 mM DTT, 0.02% Triton X‐ 100, and 0.1 µg/µL Bovine Serum Albumin (Sigma Aldrich, #A7030) in a total volume of 25 µL. Fluorescence polarization values were determined with a PerkinElmer Envision reader with FITC FP dual mirror and FITC FP 480 excitation filter and FITC FP 535 emission filters. Fluorescence polarization values of a 10x serial dilution (10 nM to 100 µM) of the test compounds were determined in triplicates. EC50 values were calculated with GraphPad Prism software (version 10.0.2) with a non‐linear fit function (4PL sigmoidal curve fit) adjusting the bottom constrain to the FP value of free tracer. […]

[1] = 200 nM CRBN-DDB1, 20 nM pomalidomide-fluorescein tracer 16, triplicates, read-out: FP_CRBN_binding: CRBN binding affinity, EC50

| SMILES | EC50 [1] [nM] | EC50 [nM] |
| --- | --- | --- |
| CN(C)c1ncc(CN(C)S(=O)(=O)Oc2ccc(C3CCC(=O)NC3=O)cc2)cn1 (centres unmarked) [FL5-18] | 586 |  |
| O=C1CCC(c2ccc(OS(=O)(=O)N3C[C@@H](F)[C@H](F)C3)cc2)C(=O)N1 (some centres unmarked) [FL5-10] | 893 |  |
| Cc1cn2c(n1)CN(S(=O)(=O)Oc1cccc(Nc3ccc4c(c3)C(=O)N(C3CCC(=O)NC3=O)C4=O)c1)CC2 (centres unmarked) [FL1-13] | 482 |  |
| CN(C1CC1)S(=O)(=O)Oc1cccc(Nc2cccc3c2C(=O)N(C2CCC(=O)NC2=O)C3=O)c1 (centres unmarked) [FL3-21] | 1020 |  |
| C[C@@H]1C[C@H](C)CN(S(=O)(=O)Oc2ccc(C3CCC(=O)NC3=O)cc2)C1 (some centres unmarked) [FL5-6] | 4690 |  |
| CC1c2cc(F)ccc2CCN1S(=O)(=O)Oc1ccc(Nc2cccc3c2C(=O)N(C2CCC(=O)NC2=O)C3=O)cc1 (centres unmarked) [FL4-17] | 983 |  |
| CC1c2cc(F)ccc2CCN1S(=O)(=O)Oc1ccc(C2CCC(=O)NC2=O)cc1 (centres unmarked) [FL5-17] | 908 |  |
| C[C@@H](O)CN(C)S(=O)(=O)Oc1cccc(C2CCC(=O)NC2=O)c1 (some centres unmarked) [FL6-1] | 584 |  |
| CN(Cc1ccc2[nH]nnc2c1)S(=O)(=O)Oc1ccc(Nc2ccc3c(c2)C(=O)N(C2CCC(=O)NC2=O)C3=O)cc1 (centres unmarked) [FL2-15] | 1650 |  |
| O=C1CCC(c2cccc(OS(=O)(=O)N3CC(CCO)C3)c2)C(=O)N1 (centres unmarked) [FL6-2] | 1250 |  |
| O=C1CCC(N2C(=O)c3cccc(Nc4cccc(OS(=O)(=O)N5CCOCC5)c4)c3C2=O)C(=O)N1 (centres unmarked) [FL3-5] | 214 |  |
| O=C1CCC(N2C(=O)c3cccc(Nc4ccc(OS(=O)(=O)N5CCOCC5)cc4)c3C2=O)C(=O)N1 (centres unmarked) [FL4-5] | 652 |  |
| O=C1CCC(N2C(=O)c3ccc(Nc4cccc(OS(=O)(=O)N5CC6(CNC(=O)N6)C5)c4)cc3C2=O)C(=O)N1 (centres unmarked) [FL1-9] | 435 |  |
| O=C1CCC(c2ccc(OS(=O)(=O)N3CC(CCO)C3)cc2)C(=O)N1 (centres unmarked) [FL5-2] | 1060 |  |
| O=C1CCC(N2C(=O)c3ccc(Nc4ccc(OS(=O)(=O)N5CCC(c6ccncc6)CC5)cc4)cc3C2=O)C(=O)N1 (centres unmarked) [FL2-16] | 1970 |  |
| O=C1CCC(c2cccc(OS(=O)(=O)N3CCOCC3)c2)C(=O)N1 (centres unmarked) [FL6-5] | 679 |  |
| Cc1cn2c(n1)CN(S(=O)(=O)Oc1ccc(Nc3cccc4c3C(=O)N(C3CCC(=O)NC3=O)C4=O)cc1)CC2 (centres unmarked) [FL4-13] | 463 |  |
| O=C1CCC(c2ccccc2OS(=O)(=O)F)C(=O)N1 (centres unmarked) [FL7] |  | 72400 |
| C[C@@H](O)CN(C)S(=O)(=O)Oc1ccc(C2CCC(=O)NC2=O)cc1 (some centres unmarked) [FL5-1] | 914 |  |
| CN(Cc1ncnn1C)S(=O)(=O)Oc1cccc(Nc2ccc3c(c2)C(=O)N(C2CCC(=O)NC2=O)C3=O)c1 (centres unmarked) [FL1-11] | 509 |  |
| CN(C)c1ncc(CN(C)S(=O)(=O)Oc2cccc(Nc3cccc4c3C(=O)N(C3CCC(=O)NC3=O)C4=O)c2)cn1 (centres unmarked) [FL3-18] | 676 |  |
| O=C1CCC(N2C(=O)c3ccc(Nc4ccc(OS(=O)(=O)N5CC6(CNC(=O)N6)C5)cc4)cc3C2=O)C(=O)N1 (centres unmarked) [FL2-9] | 414 |  |
| O=C1CCC(N2C(=O)c3ccc(Nc4cccc(OS(=O)(=O)N5CCC(c6ccncc6)CC5)c4)cc3C2=O)C(=O)N1 (centres unmarked) [FL1-16] | 682 |  |
| O=C1CCC(N2C(=O)c3ccc(Nc4cccc(OS(=O)(=O)N5C[C@@H](F)[C@H](F)C5)c4)cc3C2=O)C(=O)N1 (some centres unmarked) [FL1-10] | 607 |  |

Continued by falling EC50 [1], values first:

| EC50 [1] [nM] | SMILES | EC50 [nM] |
| --- | --- | --- |
| 4780 | O=C1CCC(N2C(=O)c3ccc(Nc4ccc(OS(=O)(=O)N5CCC(c6ccco6)C5)cc4)cc3C2=O)C(=O)N1 (centres unmarked) [FL2-12] |  |
| 3650 | C[C@@H]1C[C@H](C)CN(S(=O)(=O)Oc2ccc(Nc3cccc4c3C(=O)N(C3CCC(=O)NC3=O)C4=O)cc2)C1 (some centres unmarked) [FL4-6] |  |
| 2130 | CN(Cc1ccc2[nH]nnc2c1)S(=O)(=O)Oc1ccc(Nc2cccc3c2C(=O)N(C2CCC(=O)NC2=O)C3=O)cc1 (centres unmarked) [FL4-15] |  |
| 1840 | CC1c2cc(F)ccc2CCN1S(=O)(=O)Oc1cccc(Nc2ccc3c(c2)C(=O)N(C2CCC(=O)NC2=O)C3=O)c1 (centres unmarked) [FL1-17] |  |
| 1470 | CN(Cc1ccc2c(c1)OCO2)S(=O)(=O)Oc1cccc(Nc2ccc3c(c2)C(=O)N(C2CCC(=O)NC2=O)C3=O)c1 (centres unmarked) [FL1-20] |  |
| 1340 | CC1(C)CN(S(=O)(=O)Oc2ccc(C3CCC(=O)NC3=O)cc2)CC2(CCOC2)O1 (centres unmarked) [FL5-8] |  |
| 1310 | CC1c2cc(F)ccc2CCN1S(=O)(=O)Oc1cccc(Nc2cccc3c2C(=O)N(C2CCC(=O)NC2=O)C3=O)c1 (centres unmarked) [FL3-17] |  |
| 1300 | CC(C)(O)C1CCN(S(=O)(=O)Oc2cccc(C3CCC(=O)NC3=O)c2)C1 (centres unmarked) [FL6-4] |  |
| 1170 | CN(Cc1ccc2[nH]nnc2c1)S(=O)(=O)Oc1cccc(Nc2ccc3c(c2)C(=O)N(C2CCC(=O)NC2=O)C3=O)c1 (centres unmarked) [FL1-15] |  |
| 1080 | CN(C1CC1)S(=O)(=O)Oc1ccc(Nc2cccc3c2C(=O)N(C2CCC(=O)NC2=O)C3=O)cc1 (centres unmarked) [FL4-21] |  |
| 1050 | O=C1CCC(c2ccc(OS(=O)(=O)N3CC4(CNC(=O)N4)C3)cc2)C(=O)N1 (centres unmarked) [FL5-9] |  |
| 990 | CN(Cc1ccc2[nH]nnc2c1)S(=O)(=O)Oc1cccc(Nc2cccc3c2C(=O)N(C2CCC(=O)NC2=O)C3=O)c1 (centres unmarked) [FL3-15] |  |
| 899 | CN(C1CC1)S(=O)(=O)Oc1ccc(C2CCC(=O)NC2=O)cc1 (centres unmarked) [FL5-21] |  |
| 887 | CN(Cc1ncnn1C)S(=O)(=O)Oc1cccc(C2CCC(=O)NC2=O)c1 (centres unmarked) [FL6-11] |  |
| 829 | O=C1CCC(c2ccc(OS(=O)(=O)N3CCOCC3)cc2)C(=O)N1 (centres unmarked) [FL5-5] |  |
| 771 | Cc1cn2c(n1)CN(S(=O)(=O)Oc1ccc(C3CCC(=O)NC3=O)cc1)CC2 (centres unmarked) [FL5-13] |  |
| 743 | CC1(C)CN(S(=O)(=O)Oc2cccc(C3CCC(=O)NC3=O)c2)CCS1(=O)=O (centres unmarked) [FL6-7] |  |
| 731 | CC1(C)CN(S(=O)(=O)Oc2ccc(Nc3ccc4c(c3)C(=O)N(C3CCC(=O)NC3=O)C4=O)cc2)CCS1(=O)=O (centres unmarked) [FL2-7] |  |
| 713 | O=C1CCC(c2cccc(OS(=O)(=O)N3CC4(CNC(=O)N4)C3)c2)C(=O)N1 (centres unmarked) [FL6-9] |  |
| 705 | O=C1CCC(c2ccc(OS(=O)(=O)N3CCC(c4ccco4)C3)cc2)C(=O)N1 (centres unmarked) [FL5-12] |  |
| 557 | O=C1CCC(N2C(=O)c3cccc(Nc4ccc(OS(=O)(=O)N5CC(CCO)C5)cc4)c3C2=O)C(=O)N1 (centres unmarked) [FL4-2] |  |
| 526 | Cc1cn2c(n1)CN(S(=O)(=O)Oc1ccc(Nc3ccc4c(c3)C(=O)N(C3CCC(=O)NC3=O)C4=O)cc1)CC2 (centres unmarked) [FL2-13] |  |
| 445 | C[C@@H](O)CN(C)S(=O)(=O)Oc1ccc(Nc2ccc3c(c2)C(=O)N(C2CCC(=O)NC2=O)C3=O)cc1 (some centres unmarked) [FL2-1] |  |
| 330 | O=C1CCC(N2C(=O)c3cccc(Nc4cccc(OS(=O)(=O)N5CC6(CNC(=O)N6)C5)c4)c3C2=O)C(=O)N1 (centres unmarked) [FL3-9] |  |
| 301 | CC(O)CN(C)S(=O)(=O)Oc1cccc(Nc2cccc3c2C(=O)N(C2CCC(=O)NC2=O)C3=O)c1 (centres unmarked) [FL3-1] |  |
| 264 | O=C1CCC(N2C(=O)c3cccc(Nc4cccc(OS(=O)(=O)N5CCC(c6ccncc6)CC5)c4)c3C2=O)C(=O)N1 (centres unmarked) [FL3-16] |  |
